Experimental data: patent US20260092071A1, “COMPOUNDS AND COMPOSITIONS AS SMARCA2/4 DEGRADERS AND USES THEREOF” (REGENTS OF THE UNIVERSITY OF MICHIGAN, priority 2022, published 2026)
Read-outs that look alike come from different tables or passages of the source.

Key:
[1] = target: SMARCA4 (Homo sapiens, UniProt P51532); assay: HiBiT assay for protein degradation, Hela SMARCA4-HiBiT cells (A series); type: cell-based; set-up: fuse HiBiT to the carboxy terminus of SMARCA2 (Promega CS302365) or SMARCA4 (Promega CS3023225); host or cells: HeLa (CRISPR/Cas9 HiBiT knock-in); details: for DC50: read-out: SMARC A4 Hela HiBit DC50
Method in brief: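 SMARCA4 degradation was measured in HeLa cells in which HiBiT had been knocked into the SMARCA4 carboxy terminus via CRISPR/Cas9 (Promega CS3023225). Cells were maintained in DMEM with FBS and penicillin-streptomycin. At the end of treatment, SMARCA4 levels were read by lytic HiBiT luminescence (Nano-Glo®, Promega N3050), and data were analyzed with GraphPad Prism.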

[2] = target: SMARCA2 (Homo sapiens, UniProt P51531); assay: HiBiT assay for protein degradation, Hela SMARCA2-HiBiT cells (A series); type: cell-based; set-up: Hela cells were genetically modified via CRISPR/Cas9 to fuse HiBiT to the carboxy terminus of SMARCA2; host or cells: HeLa (CRISPR/Cas9 HiBiT knock-in); details: for DC50: read-out: SMARC A2 Hela HiBit DC50; for Dmax: read-out: SMARC A2 Hela HiBit Dmax (%);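 for SMARC A2 Hela HiBit Dmax (%): 24 h compound treatment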
Method in brief: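 SMARCA2 degradation was measured in HeLa cells whose endogenous SMARCA2 carries a carboxy-terminal HiBiT tag introduced by CRISPR/Cas9 (Promega CS302365). Cells were maintained in DMEM with FBS and penicillin-streptomycin. SMARCA2 levels were read at the end of the experiment by Nano-Glo® HiBiT lytic luminescence (Promega N3050) and analyzed in GraphPad Prism.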

[3] = Hela SMARCA4-HiBiT cells, 24 hours treatment
[4] = Hela SMARCA4-HiBiT cells, 24 hours treatment, read-out: SMARC A4 Hela HiBit Dmax(%)
[5] = Hela SMARCA2-HiBiT cells, 24 hours treatment
[6] = Hela SMARCA4-HiBiT cells, 24 hours treatment, read-out: SMARC A4 Hela HiBit Dmax

SMARCA4, sequence (P51532 whole entry): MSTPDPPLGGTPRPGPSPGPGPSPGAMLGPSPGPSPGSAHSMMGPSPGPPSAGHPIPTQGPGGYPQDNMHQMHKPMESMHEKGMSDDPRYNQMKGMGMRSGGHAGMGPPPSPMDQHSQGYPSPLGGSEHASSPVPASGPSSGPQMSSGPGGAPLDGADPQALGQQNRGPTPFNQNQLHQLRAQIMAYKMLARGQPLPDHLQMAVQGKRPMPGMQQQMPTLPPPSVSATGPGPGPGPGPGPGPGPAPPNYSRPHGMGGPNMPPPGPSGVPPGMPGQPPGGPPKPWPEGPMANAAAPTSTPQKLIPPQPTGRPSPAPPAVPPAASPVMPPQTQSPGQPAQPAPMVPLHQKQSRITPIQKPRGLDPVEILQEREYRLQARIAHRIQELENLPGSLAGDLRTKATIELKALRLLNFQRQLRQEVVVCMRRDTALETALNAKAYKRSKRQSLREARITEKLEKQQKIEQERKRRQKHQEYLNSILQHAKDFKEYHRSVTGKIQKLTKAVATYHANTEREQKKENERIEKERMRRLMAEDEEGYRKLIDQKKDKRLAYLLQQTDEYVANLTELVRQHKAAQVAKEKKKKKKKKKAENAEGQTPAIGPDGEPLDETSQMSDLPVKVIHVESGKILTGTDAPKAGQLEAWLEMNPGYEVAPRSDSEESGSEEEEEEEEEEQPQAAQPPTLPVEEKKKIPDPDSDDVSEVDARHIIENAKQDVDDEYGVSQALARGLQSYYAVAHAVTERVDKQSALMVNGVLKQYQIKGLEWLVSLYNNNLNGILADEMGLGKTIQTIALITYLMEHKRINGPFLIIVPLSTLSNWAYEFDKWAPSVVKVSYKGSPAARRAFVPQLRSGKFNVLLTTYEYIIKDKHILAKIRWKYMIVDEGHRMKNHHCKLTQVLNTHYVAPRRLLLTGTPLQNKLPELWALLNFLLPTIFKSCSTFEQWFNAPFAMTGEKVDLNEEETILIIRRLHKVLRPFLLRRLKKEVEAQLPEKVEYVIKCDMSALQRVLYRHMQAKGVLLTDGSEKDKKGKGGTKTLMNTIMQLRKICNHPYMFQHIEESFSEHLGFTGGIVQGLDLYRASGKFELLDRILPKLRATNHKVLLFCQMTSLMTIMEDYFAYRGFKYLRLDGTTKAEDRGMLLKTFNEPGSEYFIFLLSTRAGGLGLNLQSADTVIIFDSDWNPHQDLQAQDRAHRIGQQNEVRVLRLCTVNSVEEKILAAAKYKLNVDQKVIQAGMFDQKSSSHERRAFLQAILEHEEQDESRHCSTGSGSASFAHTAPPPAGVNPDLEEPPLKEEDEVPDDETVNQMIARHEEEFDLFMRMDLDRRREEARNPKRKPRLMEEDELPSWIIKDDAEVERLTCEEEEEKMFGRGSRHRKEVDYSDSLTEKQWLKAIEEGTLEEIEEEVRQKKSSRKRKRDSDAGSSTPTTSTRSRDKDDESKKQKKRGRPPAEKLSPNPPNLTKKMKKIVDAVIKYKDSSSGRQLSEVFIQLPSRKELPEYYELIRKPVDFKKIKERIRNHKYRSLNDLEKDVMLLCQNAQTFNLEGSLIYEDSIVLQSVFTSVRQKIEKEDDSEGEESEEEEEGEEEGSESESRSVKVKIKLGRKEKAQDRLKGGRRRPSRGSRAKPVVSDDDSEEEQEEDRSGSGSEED
SMARCA2, sequence (P51531 whole entry): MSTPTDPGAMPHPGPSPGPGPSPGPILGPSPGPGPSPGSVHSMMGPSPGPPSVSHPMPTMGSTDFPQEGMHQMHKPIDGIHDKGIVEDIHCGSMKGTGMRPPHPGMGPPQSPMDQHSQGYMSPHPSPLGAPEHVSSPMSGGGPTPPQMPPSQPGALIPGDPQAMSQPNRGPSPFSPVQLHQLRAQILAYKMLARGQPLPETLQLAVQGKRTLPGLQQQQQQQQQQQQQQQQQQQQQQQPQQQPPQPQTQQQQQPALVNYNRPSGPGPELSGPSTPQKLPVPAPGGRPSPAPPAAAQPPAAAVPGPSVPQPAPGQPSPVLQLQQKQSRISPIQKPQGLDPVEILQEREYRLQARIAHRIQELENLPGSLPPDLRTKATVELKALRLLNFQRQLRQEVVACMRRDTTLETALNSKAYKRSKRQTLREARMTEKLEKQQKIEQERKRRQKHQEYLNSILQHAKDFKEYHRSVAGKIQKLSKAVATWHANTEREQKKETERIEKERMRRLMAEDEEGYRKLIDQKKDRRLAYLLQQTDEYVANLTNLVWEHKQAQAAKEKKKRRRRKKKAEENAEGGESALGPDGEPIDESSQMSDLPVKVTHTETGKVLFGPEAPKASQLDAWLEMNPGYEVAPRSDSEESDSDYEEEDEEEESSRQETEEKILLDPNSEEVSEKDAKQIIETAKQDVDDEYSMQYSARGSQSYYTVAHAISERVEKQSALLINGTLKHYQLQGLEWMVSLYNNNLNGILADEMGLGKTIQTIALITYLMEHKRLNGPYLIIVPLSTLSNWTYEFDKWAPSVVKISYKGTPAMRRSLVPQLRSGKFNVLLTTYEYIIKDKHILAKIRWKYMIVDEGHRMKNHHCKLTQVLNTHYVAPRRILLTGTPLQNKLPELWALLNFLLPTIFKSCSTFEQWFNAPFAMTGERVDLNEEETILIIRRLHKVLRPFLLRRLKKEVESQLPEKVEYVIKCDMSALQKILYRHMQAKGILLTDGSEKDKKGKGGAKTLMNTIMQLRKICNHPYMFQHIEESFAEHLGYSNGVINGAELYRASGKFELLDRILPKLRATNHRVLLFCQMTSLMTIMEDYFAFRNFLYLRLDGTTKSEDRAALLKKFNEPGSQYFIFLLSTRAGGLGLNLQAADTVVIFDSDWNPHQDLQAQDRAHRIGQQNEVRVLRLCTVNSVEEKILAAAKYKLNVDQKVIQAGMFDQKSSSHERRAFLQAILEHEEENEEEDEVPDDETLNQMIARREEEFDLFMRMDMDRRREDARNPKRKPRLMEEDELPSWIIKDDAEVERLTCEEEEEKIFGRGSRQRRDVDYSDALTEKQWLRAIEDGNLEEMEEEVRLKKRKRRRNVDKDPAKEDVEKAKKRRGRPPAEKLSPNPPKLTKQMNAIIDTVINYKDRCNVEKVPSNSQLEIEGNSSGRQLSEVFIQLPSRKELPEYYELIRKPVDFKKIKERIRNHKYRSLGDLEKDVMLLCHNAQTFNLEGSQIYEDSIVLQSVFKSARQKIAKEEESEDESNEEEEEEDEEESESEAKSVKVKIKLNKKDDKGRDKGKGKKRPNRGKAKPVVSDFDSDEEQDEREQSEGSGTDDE

Compound | DC50 [1, 3] [nM] | Dmax [1, 4] [%] | DC50 [2, 5] [nM] | Dmax [2, 5] [%] | Dmax [1, 6] [%] | SMARC A4 Hela HiBit Dmax(%) [1, 3] | DC50 [1] [nM] | SMARC A2 Hela HiBit Dmax (%) [2, 5] | DC50 [2] [nM]
Cc1ncoc1-c1ccc([C@H](CN2CCOCC2)NC(=O)[C@@H]2C[C@@H](O)CN2C(=O)[C@@H](n2cc([C@H]3CC[C@H](CN4CCC(c5ccc6c(c5)-n5c(nc(=O)c7c(Cl)cccc75)C65CCCCC5)CC4)CC3)nn2)C(C)(C)C)cc1 [Compound A165, (2S,4R)-1-((S)-2-(4-((1r,4S)-4-((4-(4′-chloro-5′-oxo-5′H-spiro[cyclohexane-1,7′-indolo[1,2-a]quinazolin]-10′-yl)piperidin-1-yl)methyl)cyclohexyl)-1H-1,2,3-triazol-1-yl)-3,3-dimethylbutanoyl)-4-hydroxy-N—((R)-1-(4-(4-methyloxazol-5-yl)phenyl)-2-morpholinoethyl)pyrrolidine-2-carboxamide] | > 1000 |  | < 10 | > 90 | < 50 |  |  |  | 
Cc1ncsc1-c1ccc([C@H](CC(=O)N2CCC(c3ccc4c(c3)-n3c(nc(=O)c5c(Cl)cccc53)C43CCCCC3)CC2)NC(=O)[C@@H]2C[C@@H](O)CN2C(=O)[C@@H](n2cc(C3CC3)nn2)C(C)(C)C)cc1 [Compound A140, (2S,4R)—N—((S)-3-(4-(4′-chloro-5′-oxo-5′H-spiro[cyclohexane-1,7′-indolo[1,2-a]quinazolin]-10′-yl)piperidin-1-yl)-1-(4-(4-methylthiazol-5-yl)phenyl)-3-oxopropyl)-1-((S)-2-(4-cyclopropyl-1H-1,2,3-triazol-1-yl)-3,3-dimethylbutanoyl)-4-hydroxypyrrolidine-2-carboxamide] | > 1000 |  | 10 to 100 | 70 to 90 | < 50 |  |  |  | 
Cc1ncsc1-c1ccc([C@H](C)NC(=O)[C@@H]2C[C@@H](O)CN2C(=O)[C@H](C2CCN(C(=O)CN3CCC(c4ccc5c(c4)-n4c(nc(=O)c6c(Cl)cccc64)C54CCCCC4)CC3)CC2)n2cc(C3CC3)nn2)cc1 [Compound A105, (2S,4R)-1-((S)-2-(1-(2-(4-(4′-chloro-5′-oxo-5′H-spiro[cyclohexane-1,7′-indolo[1,2-a]quinazolin]-10′-yl)piperidin-1-yl)acetyl)piperidin-4-yl)-2-(4-cyclopropyl-1H-1,2,3-triazol-1-yl)acetyl)-4-hydroxy-N—((S)-1-(4-(4-methylthiazol-5-yl)phenyl)ethyl)pyrrolidine-2-carboxamide] | > 1000 |  | 100 to 1000 | 50 to 69 | < 50 |  |  |  | 
COCCOCCOC[C@H](NC(=O)[C@@H]1C[C@@H](O)CN1C(=O)[C@@H](n1cc([C@H]2CC[C@H](CN3CCC(c4ccc5c(c4)-n4c(nc(=O)c6c(Cl)cccc64)C54CCCCC4)CC3)CC2)nn1)C(C)(C)C)c1ccc(-c2scnc2C)cc1 [Compound A87, (2S,4R)-1-((S)-2-(4-((1r,4S)-4-((4-(4′-chloro-5′-oxo-5′H-spiro[cyclohexane-1,7′-indolo[1,2-a]quinazolin]-10′-yl)piperidin-1-yl)methyl)cyclohexyl)-1H-1,2,3-triazol-1-yl)-3,3-dimethylbutanoyl)-4-hydroxy-N-(®-2-(2-(2-methoxyethoxy)ethoxy)-1-(4-(4-methylthiazol-5-yl)phenyl)ethyl)pyrrolidine-2-carboxamide] | > 1000 |  | < 10 | > 90 | 50 to 69 |  |  |  | 
CC(C)(C)[C@@H](C(=O)N1C[C@H](O)C[C@H]1C(=O)N[C@@H](CN1CCOCC1)c1ccc(-c2ccncc2)cc1)n1cc([C@H]2CC[C@H](CN3CCC(c4ccc5c(c4)-n4c(nc(=O)c6c(Cl)cccc64)C54CCCCC4)CC3)CC2)nn1 [Compound A172, (2S,4R)-1-((S)-2-(4-((1r,4S)-4-((4-(4′-chloro-5′-oxo-5′H-spiro[cyclohexane-1,7′-indolo[1,2-a]quinazolin]-10′-yl)piperidin-1-yl)methyl)cyclohexyl)-1H-1,2,3-triazol-1-yl)-3,3-dimethylbutanoyl)-4-hydroxy-N—((R)-2-morpholino-1-(4-(pyridin-4-yl)phenyl)ethyl)pyrrolidine-2-carboxamide] | > 1000 |  | < 10 | > 90 | < 50 |  |  |  | 
Cc1ncsc1-c1ccc([C@H](CN2CCOCC2)NC(=O)[C@@H]2C[C@@H](O)CN2C(=O)[C@@H](n2cc([C@H]3CC[C@H](CN4CCC(c5ccc6c(c5)-n5c(nc(=O)c7c(Cl)cccc75)C65CCCCC5)CC4)CC3)nn2)C(C)(C)O)cc1 [Compound A158, (2S,4R)-1-((S)-2-(4-((1r,4S)-4-((4-(4′-chloro-5′-oxo-5′H-spiro[cyclohexane-1,7′-indolo[1,2-a]quinazolin]-10′-yl)piperidin-1-yl)methyl)cyclohexyl)-1H-1,2,3-triazol-1-yl)-3-hydroxy-3-methylbutanoyl)-4-hydroxy-N-((R)-1-(4-(4-methylthiazol-5-yl)phenyl)-2-morpholinoethyl)pyrrolidine-2-carboxamide] | > 1000 |  | < 10 | > 90 | 50 to 69 |  |  |  | 
Cc1ncsc1-c1ccc([C@H](CCCCCN2CCC(c3ccc4c(c3)-n3c(nc(=O)c5c(Br)cccc53)C43CCCCC3)CC2)NC(=O)[C@H]2C[C@H](O)CN2C(=O)[C@@H](n2cc(C3CC3)nn2)C(C)(C)C)cc1 [Compound A36, (2R,4S)—N—((S)-6-(4-(4′-bromo-5′-oxo-5′H-spiro[cyclohexane-1,7′-indolo[1,2-a]quinazolin]-10′-yl)piperidin-1-yl)-1-(4-(4-methylthiazol-5-yl)phenyl)hexyl)-1-((S)-2-(4-cyclopropyl-1H-1,2,3-triazol-1-yl)-3,3-dimethylbutanoyl)-4-hydroxypyrrolidine-2-carboxamide] | < 100 | > 90 | < 100 | > 90 |  |  |  |  | 

Results, then the molecule that gave them:

DC50 [1, 3] [nM] | Dmax [1, 4] [%] | DC50 [2, 5] [nM] | Dmax [2, 5] [%] | Dmax [1, 6] [%] | SMARC A4 Hela HiBit Dmax(%) [1, 3] | DC50 [1] [nM] | SMARC A2 Hela HiBit Dmax (%) [2, 5] | DC50 [2] [nM] | Compound
> 1000 | < 50 | < 100 | > 90 |  |  |  |  |  | Cc1ncsc1-c1ccc([C@H](CN2CCC(F)(F)CC2)NC(=O)[C@@H]2C[C@@H](O)CN2C(=O)[C@@H](n2cc([C@H]3CC[C@H](CN4CCC(c5ccc6c(c5)-n5c(nc(=O)c7c(Cl)cccc75)C65CCCCC5)CC4)CC3)nn2)C(C)(C)C)cc1 [Compound A75, (2S,4R)-1-((S)-2-(4-((1r,4S)-4-((4-(4′-chloro-5′-oxo-5′H-spiro[cyclohexane-1,7′-indolo[1,2-a]quinazolin]-10′-yl)piperidin-1-yl)methyl)cyclohexyl)-1H-1,2,3-triazol-1-yl)-3,3-dimethylbutanoyl)-N—((R)-2-(4,4-difluoropiperidin-1-yl)-1-(4-(4-methylthiazol-5-yl)phenyl)ethyl)-4-hydroxypyrrolidine-2-carboxamide]
100 to 1000 |  | < 10 | > 90 | 50 to 69 |  |  |  |  | CC(C)(C)[C@@H](C(=O)N1C[C@H](O)C[C@H]1C(=O)N[C@@H](CN1CCOCC1)c1ccc(-c2cccnc2)cc1)n1cc([C@H]2CC[C@H](CN3CCC(c4ccc5c(c4)-n4c(nc(=O)c6c(Cl)cccc64)C54CCCCC4)CC3)CC2)nn1 [Compound A171, (2S,4R)-1-((S)-2-(4-((1r,4S)-4-((4-(4′-chloro-5′-oxo-5′H-spiro[cyclohexane-1,7′-indolo[1,2-a]quinazolin]-10′-yl)piperidin-1-yl)methyl)cyclohexyl)-1H-1,2,3-triazol-1-yl)-3,3-dimethylbutanoyl)-4-hydroxy-N—((R)-2-morpholino-1-(4-(pyridin-3-yl)phenyl)ethyl)pyrrolidine-2-carboxamide]
 |  |  |  |  | B (B (70-90% degradation)) | 100 to 500 | A (A (>90% degradation)) | < 100 | Cc1ncsc1-c1ccc([C@H](C)NC(=O)[C@@H]2C[C@@H](O)CN2C(=O)[C@@H](n2cc(C3(CN4CCC(c5ccc6c(c5)-n5c(nc(=O)c7c(Br)cccc75)C65CCCCC5)CC4)CC3)nn2)C(C)(C)C)cc1 [Compound A64, (2S,4R)-1-((S)-2-(4-(1-((4-(4′-bromo-5′-oxo-5′H-spiro[cyclohexane-1,7′-indolo[1,2-a]quinazolin]-10′-yl)piperidin-1-yl)methyl)cyclopropyl)-1H-1,2,3-triazol-1-yl)-3,3-dimethylbutanoyl)-4-hydroxy-N—((S)-1-(4-(4-methylthiazol-5-yl)phenyl)ethyl)pyrrolidine-2-carboxamide]
